The kinase profiling compilation of Christmann-Franck et al. (2016)

Assays:
Experiment in all cases: radiometric filter-binding kinase assay
[1] = test system: AKT1 (human), P31749 [S473D]
AURKA (human) = AURKA (human) (UniProt O14965)
BRSK2 (human) = BRSK2 (human) (UniProt Q8IWQ3)
CHEK2 (human) = CHEK2 (human) (UniProt O96017)
CaMK1 (human) = CaMK1 (human) (UniProt Q14012)
DYRK1A (human) = DYRK1A (human) (UniProt Q13627)
DYRK2 (human) = DYRK2 (human) (UniProt Q92630)
EPHB2 (human) = EPHB2 (human) (UniProt P29323)
EPHB3 (human) = EPHB3 (human) (UniProt P54753)
ERBB4 (human) = ERBB4 (human) (UniProt Q15303)
HIPK2 (human) = HIPK2 (human) (UniProt Q9H2X6)
IKBKE (human) = IKBKE (human) (UniProt Q14164)
MAP2K6 (human) = MAP2K6 (human) (UniProt P52564)
MAP3K11 (human) = MAP3K11 (human) (UniProt Q16584)
MAPK1 (human) = MAPK1 (human) (UniProt P28482)
MAPK10 (human) = MAPK10 (human) (UniProt P53779)
MAPK12 (human) = MAPK12 (human) (UniProt P53778)
MAPK13 (human) = MAPK13 (human) (UniProt O15264)
MAPK3 (human) = MAPK3 (human) (UniProt P27361)
MAPK8 (human) = MAPK8 (human) (UniProt P45983)
MAPKAPK3 (human) = MAPKAPK3 (human) (UniProt Q16644)
MARK2 (human) = MARK2 (human) (UniProt Q7KZI7)
MKNK1 (human) = MKNK1 (human) (UniProt Q9BUB5)
MST4 (human) = MST4 (human) (UniProt Q9P289)
NEK2 (human) = NEK2 (human) (UniProt P51955)
NUAK1 (human) = NUAK1 (human) (UniProt O60285)
PAK4 (human) = PAK4 (human) (UniProt O96013)
PAK7 (human) = PAK7 (human) (UniProt Q9P286)
PLK1 (human) = PLK1 (human) (UniProt P53350)
PRKAA1 or PRKAA2 (rat) = settings: accession and sequence are those of the human protein
PRKACA (human) = PRKACA (human) (UniProt P17612)
PRKCA (human) = PRKCA (human) (UniProt P17252)
RPS6KA1 KD1 KD2 (human) = RPS6KA1 KD1 KD2 (human) (UniProt Q15418)
[2] = test system: SGK1 (human), O00141 [S422D]
SYK (human) = SYK (human) (UniProt P43405)

SGK1 (human), O00141 [S422D], sequence (O00141 whole entry S422D, looked up): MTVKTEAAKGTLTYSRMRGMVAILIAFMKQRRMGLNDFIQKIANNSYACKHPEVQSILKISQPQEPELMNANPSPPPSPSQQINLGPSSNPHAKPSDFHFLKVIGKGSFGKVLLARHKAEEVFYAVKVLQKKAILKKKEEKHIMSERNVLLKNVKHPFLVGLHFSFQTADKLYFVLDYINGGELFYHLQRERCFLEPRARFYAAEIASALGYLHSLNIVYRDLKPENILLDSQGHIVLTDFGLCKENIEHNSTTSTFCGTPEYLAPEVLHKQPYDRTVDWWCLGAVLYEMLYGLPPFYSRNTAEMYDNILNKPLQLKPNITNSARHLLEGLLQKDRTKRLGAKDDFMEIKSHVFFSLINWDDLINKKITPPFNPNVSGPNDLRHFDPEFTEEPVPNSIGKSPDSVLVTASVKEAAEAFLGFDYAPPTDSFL
PAK4 (human), sequence (O96013 whole entry, looked up): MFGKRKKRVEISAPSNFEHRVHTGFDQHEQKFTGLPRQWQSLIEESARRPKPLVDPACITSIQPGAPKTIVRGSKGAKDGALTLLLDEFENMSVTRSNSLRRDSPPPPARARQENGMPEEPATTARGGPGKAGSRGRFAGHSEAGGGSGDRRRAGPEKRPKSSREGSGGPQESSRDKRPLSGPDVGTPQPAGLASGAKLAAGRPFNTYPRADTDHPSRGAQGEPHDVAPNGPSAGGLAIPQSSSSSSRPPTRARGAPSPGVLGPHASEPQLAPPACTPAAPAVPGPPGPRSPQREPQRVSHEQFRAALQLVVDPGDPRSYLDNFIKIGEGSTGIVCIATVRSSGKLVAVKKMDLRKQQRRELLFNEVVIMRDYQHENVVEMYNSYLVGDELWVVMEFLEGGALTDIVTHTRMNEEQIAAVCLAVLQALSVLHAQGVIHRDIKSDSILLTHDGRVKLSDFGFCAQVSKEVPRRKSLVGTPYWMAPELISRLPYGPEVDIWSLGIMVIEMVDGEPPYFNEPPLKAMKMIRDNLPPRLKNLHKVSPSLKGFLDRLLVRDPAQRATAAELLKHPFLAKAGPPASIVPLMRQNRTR
MARK2 (human), sequence (Q7KZI7 whole entry, looked up): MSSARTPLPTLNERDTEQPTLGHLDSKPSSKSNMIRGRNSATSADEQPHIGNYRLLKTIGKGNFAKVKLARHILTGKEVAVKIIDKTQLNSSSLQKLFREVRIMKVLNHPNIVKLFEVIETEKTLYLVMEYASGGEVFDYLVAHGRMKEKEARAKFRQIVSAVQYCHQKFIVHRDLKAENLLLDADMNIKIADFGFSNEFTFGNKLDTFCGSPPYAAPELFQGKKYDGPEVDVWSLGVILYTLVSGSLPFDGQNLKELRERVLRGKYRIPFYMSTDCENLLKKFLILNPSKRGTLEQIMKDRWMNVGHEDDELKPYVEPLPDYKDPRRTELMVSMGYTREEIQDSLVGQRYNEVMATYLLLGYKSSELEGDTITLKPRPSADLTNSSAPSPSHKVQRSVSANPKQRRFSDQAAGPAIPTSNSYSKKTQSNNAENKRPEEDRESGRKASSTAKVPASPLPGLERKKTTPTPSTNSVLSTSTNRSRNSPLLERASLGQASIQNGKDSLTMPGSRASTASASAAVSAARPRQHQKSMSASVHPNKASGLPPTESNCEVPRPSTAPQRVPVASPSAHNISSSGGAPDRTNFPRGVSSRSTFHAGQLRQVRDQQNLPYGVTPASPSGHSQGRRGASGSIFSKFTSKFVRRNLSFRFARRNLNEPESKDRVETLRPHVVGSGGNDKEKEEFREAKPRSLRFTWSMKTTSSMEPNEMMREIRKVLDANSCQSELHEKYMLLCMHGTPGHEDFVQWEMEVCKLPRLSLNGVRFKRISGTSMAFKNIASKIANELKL
HIPK2 (human), sequence (Q9H2X6 whole entry, looked up): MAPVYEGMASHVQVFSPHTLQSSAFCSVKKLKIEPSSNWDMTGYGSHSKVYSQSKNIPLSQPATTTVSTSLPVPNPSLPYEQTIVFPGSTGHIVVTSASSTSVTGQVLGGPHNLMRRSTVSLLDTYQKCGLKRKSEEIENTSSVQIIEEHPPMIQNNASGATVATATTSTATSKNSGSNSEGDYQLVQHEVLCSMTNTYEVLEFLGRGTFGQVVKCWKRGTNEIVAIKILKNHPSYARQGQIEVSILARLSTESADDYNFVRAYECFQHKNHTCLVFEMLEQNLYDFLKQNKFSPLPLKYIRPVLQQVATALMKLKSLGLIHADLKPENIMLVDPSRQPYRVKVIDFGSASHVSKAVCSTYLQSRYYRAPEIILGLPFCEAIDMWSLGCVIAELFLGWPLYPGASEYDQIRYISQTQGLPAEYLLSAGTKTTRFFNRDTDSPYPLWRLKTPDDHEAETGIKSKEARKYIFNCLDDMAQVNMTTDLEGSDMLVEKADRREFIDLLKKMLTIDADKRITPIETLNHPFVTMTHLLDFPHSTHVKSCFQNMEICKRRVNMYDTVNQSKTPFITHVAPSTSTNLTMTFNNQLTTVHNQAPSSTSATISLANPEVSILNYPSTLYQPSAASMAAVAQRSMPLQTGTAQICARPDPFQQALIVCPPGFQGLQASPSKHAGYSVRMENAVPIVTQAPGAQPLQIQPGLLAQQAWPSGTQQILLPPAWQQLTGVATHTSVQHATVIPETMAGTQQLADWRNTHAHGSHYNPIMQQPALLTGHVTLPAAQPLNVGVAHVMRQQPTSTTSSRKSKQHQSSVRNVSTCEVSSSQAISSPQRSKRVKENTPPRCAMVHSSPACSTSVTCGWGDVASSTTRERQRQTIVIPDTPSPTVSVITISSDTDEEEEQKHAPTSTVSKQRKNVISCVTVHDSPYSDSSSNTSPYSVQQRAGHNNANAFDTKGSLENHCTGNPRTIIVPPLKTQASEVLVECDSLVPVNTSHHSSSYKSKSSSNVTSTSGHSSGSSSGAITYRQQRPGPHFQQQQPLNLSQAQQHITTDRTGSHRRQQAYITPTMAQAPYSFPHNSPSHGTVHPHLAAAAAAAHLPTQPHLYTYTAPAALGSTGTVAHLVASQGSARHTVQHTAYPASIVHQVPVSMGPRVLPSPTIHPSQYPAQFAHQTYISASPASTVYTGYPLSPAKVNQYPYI
BRSK2 (human), sequence (Q8IWQ3 whole entry, looked up): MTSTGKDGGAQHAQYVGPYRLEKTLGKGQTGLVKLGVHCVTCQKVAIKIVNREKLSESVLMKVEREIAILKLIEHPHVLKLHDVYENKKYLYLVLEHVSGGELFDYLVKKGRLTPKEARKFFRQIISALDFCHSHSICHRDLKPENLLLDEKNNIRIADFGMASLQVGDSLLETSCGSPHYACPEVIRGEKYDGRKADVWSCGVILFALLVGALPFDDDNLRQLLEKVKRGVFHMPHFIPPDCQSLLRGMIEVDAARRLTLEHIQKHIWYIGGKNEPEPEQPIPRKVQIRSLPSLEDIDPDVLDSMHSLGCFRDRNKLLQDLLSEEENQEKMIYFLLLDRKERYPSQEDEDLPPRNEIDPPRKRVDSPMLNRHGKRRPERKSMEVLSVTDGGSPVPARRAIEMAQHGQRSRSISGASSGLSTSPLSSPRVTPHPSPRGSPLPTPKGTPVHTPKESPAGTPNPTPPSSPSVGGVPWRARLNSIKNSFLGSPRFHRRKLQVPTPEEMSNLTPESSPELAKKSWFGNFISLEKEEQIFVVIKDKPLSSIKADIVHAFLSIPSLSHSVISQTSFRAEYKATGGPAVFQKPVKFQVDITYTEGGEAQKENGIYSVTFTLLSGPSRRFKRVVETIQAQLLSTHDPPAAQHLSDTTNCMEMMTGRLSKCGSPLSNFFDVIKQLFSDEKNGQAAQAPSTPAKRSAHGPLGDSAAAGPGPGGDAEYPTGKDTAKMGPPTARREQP
MAP2K6 (human), sequence (P52564 whole entry, looked up): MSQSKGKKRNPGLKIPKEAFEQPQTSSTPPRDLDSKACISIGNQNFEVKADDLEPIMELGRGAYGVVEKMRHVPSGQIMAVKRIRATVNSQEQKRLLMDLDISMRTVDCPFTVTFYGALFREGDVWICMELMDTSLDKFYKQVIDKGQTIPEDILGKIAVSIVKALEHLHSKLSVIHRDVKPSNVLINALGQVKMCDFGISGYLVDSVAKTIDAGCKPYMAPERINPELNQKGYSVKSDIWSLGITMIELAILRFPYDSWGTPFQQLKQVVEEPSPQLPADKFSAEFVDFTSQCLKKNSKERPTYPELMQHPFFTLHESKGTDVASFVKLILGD

## CCCCCc1ccc(/C=C/[C@H](O)[C@@H](CO)NC)cc1
[1]; compound 0.1 µM
  residual activity: 99%
[1]; compound 1.0 µM
  residual activity: 97%
AURKA (human); compound 0.1 µM
  residual activity: 116%
AURKA (human); compound 1.0 µM
  residual activity: 105%
AURKA (human); compound 10.0 µM
  residual activity: 92%
BRSK2 (human); compound 0.1 µM
  residual activity: 130%
BRSK2 (human); compound 1.0 µM
  residual activity: 108%
BRSK2 (human); compound 10.0 µM
  residual activity: 108%
CHEK2 (human); compound 0.1 µM
  residual activity: 92%
CHEK2 (human); compound 1.0 µM
  residual activity: 84%
CHEK2 (human); compound 10.0 µM
  residual activity: 82%
CaMK1 (human); compound 0.1 µM
  residual activity: 106%
CaMK1 (human); compound 1.0 µM
  residual activity: 101%
CaMK1 (human); compound 10.0 µM
  residual activity: 89%
DYRK1A (human); compound 0.1 µM
  residual activity: 83%
DYRK1A (human); compound 1.0 µM
  residual activity: 91%
DYRK1A (human); compound 10.0 µM
  residual activity: 84%
DYRK2 (human); compound 0.1 µM
  residual activity: 116%
DYRK2 (human); compound 1.0 µM
  residual activity: 124%
DYRK2 (human); compound 10.0 µM
  residual activity: 119%
EPHB2 (human); compound 0.1 µM
  residual activity: 115%
EPHB2 (human); compound 1.0 µM
  residual activity: 105%
EPHB2 (human); compound 10.0 µM
  residual activity: 108%
EPHB3 (human); compound 0.1 µM
  residual activity: 104%
EPHB3 (human); compound 1.0 µM
  residual activity: 100%
EPHB3 (human); compound 10.0 µM
  residual activity: 86%
ERBB4 (human); compound 0.1 µM
  residual activity: 127%
ERBB4 (human); compound 10.0 µM
  residual activity: 105%
HIPK2 (human); compound 0.1 µM
  residual activity: 108%
HIPK2 (human); compound 1.0 µM
  residual activity: 106%
HIPK2 (human); compound 10.0 µM
  residual activity: 106%
IKBKE (human); compound 0.1 µM
  residual activity: 106%
IKBKE (human); compound 1.0 µM
  residual activity: 95%
IKBKE (human); compound 10.0 µM
  residual activity: 86%
MAP2K6 (human); compound 0.1 µM
  residual activity: 102%
MAP2K6 (human); compound 1.0 µM
  residual activity: 98%
MAP2K6 (human); compound 10.0 µM
  residual activity: 99%
MAP3K11 (human); compound 0.1 µM
  residual activity: 102%
MAP3K11 (human); compound 1.0 µM
  residual activity: 106%
MAP3K11 (human); compound 10.0 µM
  residual activity: 109%
MAPK1 (human); compound 0.1 µM
  residual activity: 98%
MAPK1 (human); compound 1.0 µM
  residual activity: 90%
MAPK1 (human); compound 10.0 µM
  residual activity: 100%
MAPK10 (human); compound 0.1 µM
  residual activity: 93%
MAPK10 (human); compound 1.0 µM
  residual activity: 103%
MAPK10 (human); compound 10.0 µM
  residual activity: 98%
MAPK12 (human); compound 0.1 µM
  residual activity: 93%
MAPK12 (human); compound 1.0 µM
  residual activity: 80%
MAPK12 (human); compound 10.0 µM
  residual activity: 87%
MAPK13 (human); compound 0.1 µM
  residual activity: 90%
MAPK13 (human); compound 1.0 µM
  residual activity: 99%
MAPK13 (human); compound 10.0 µM
  residual activity: 90%
MAPK3 (human); compound 1.0 µM
  residual activity: 97%
MAPK3 (human); compound 10.0 µM
  residual activity: 85%
MAPK8 (human); compound 0.1 µM
  residual activity: 98%
MAPK8 (human); compound 1.0 µM
  residual activity: 94%
MAPKAPK3 (human); compound 0.1 µM
  residual activity: 115%
MAPKAPK3 (human); compound 1.0 µM
  residual activity: 119%
MAPKAPK3 (human); compound 10.0 µM
  residual activity: 123%
MARK2 (human); compound 0.1 µM
  residual activity: 89%
MARK2 (human); compound 1.0 µM
  residual activity: 97%
MARK2 (human); compound 10.0 µM
  residual activity: 83%
MKNK1 (human); compound 0.1 µM
  residual activity: 101%
MKNK1 (human); compound 1.0 µM
  residual activity: 92%
MKNK1 (human); compound 10.0 µM
  residual activity: 93%
MST4 (human); compound 0.1 µM
  residual activity: 116%
MST4 (human); compound 1.0 µM
  residual activity: 96%
MST4 (human); compound 10.0 µM
  residual activity: 108%
NEK2 (human); compound 0.1 µM
  residual activity: 110%
NEK2 (human); compound 1.0 µM
  residual activity: 103%
NEK2 (human); compound 10.0 µM
  residual activity: 108%
NUAK1 (human); compound 0.1 µM
  residual activity: 105%
NUAK1 (human); compound 1.0 µM
  residual activity: 108%
NUAK1 (human); compound 10.0 µM
  residual activity: 101%
PAK4 (human); compound 0.1 µM
  residual activity: 91%
PAK4 (human); compound 1.0 µM
  residual activity: 91%
PAK4 (human); compound 10.0 µM
  residual activity: 85%
PAK7 (human); compound 0.1 µM
  residual activity: 104%
PAK7 (human); compound 1.0 µM
  residual activity: 100%
PAK7 (human); compound 10.0 µM
  residual activity: 101%
PLK1 (human); compound 0.1 µM
  residual activity: 106%
PLK1 (human); compound 1.0 µM
  residual activity: 94%
PLK1 (human); compound 10.0 µM
  residual activity: 96%
PRKAA1 or PRKAA2 (rat); compound 0.1 µM
  residual activity: 104%
PRKAA1 or PRKAA2 (rat); compound 1.0 µM
  residual activity: 96%
PRKAA1 or PRKAA2 (rat); compound 10.0 µM
  residual activity: 94%
PRKACA (human); compound 0.1 µM
  residual activity: 110%
PRKACA (human); compound 1.0 µM
  residual activity: 106%
PRKACA (human); compound 10.0 µM
  residual activity: 107%
PRKCA (human); compound 0.1 µM
  residual activity: 96%
PRKCA (human); compound 1.0 µM
  residual activity: 88%
PRKCA (human); compound 10.0 µM
  residual activity: 89%
RPS6KA1 KD1 KD2 (human); compound 0.1 µM
  residual activity: 95%
RPS6KA1 KD1 KD2 (human); compound 1.0 µM
  residual activity: 98%
RPS6KA1 KD1 KD2 (human); compound 10.0 µM
  residual activity: 81%
[2]; compound 0.1 µM
  residual activity: 83%
[2]; compound 1.0 µM
  residual activity: 87%
[2]; compound 10.0 µM
  residual activity: 78%
SYK (human); compound 0.1 µM
  residual activity: 134%
SYK (human); compound 1.0 µM
  residual activity: 105%
SYK (human); compound 10.0 µM
  residual activity: 92%
